Experiments:
Type in all cases: in vivo
substantia nigra TH = assay: Substantia nigra TH expression in MPTP Parkinson's disease model mouse (immunofluorescence); conditions: percentage of mean intensity of blank control group, gavage 21 days after MPTP modeling
Description: (§1) Neurotoxins can be used to establish PD animal models. Currently, 1-methyl-4-phenyl-1,2,3,6-tetrahydropyridine (MPTP) is the sole synthetic toxin which is recognized to induce PD symptoms in human and non-human primates and in mice. Using MPTP subacute modeling method, C57BL/6J male mice were intraperitoneally injected with MPTP 30 mg/kg, once a day for 5 consecutive days. The experiment animals were divided into blank control group, MPTP model group, and compound treatment group. For the […] compound treatment group, the compound was administrated by gavage for 21 consecutive days after the completion of modeling; for the MPTP model group, the normal saline was administrated by gavage for 21 consecutive days after the completion of modeling; and for the blank control group, the normal saline was first intraperitoneally injected for 5 days, and then administrated by gavage for 21 days.
The main cause of PD lies in the pathological changes in the substantia nigra-striatum projection system of the brain and the progressive degeneration and loss of dopaminergic neurons. Tyrosine hydroxylase (TH) is the first enzyme in the biosynthesis of catecholamine neurotransmitters, as well as the first rate-limiting enzyme in the dopamine synthesis. It plays an important role in the synthesis and metabolism of the neurotransmitter DA. The TH in PD animal models and patients has a wide range of abnormal changes, from the gene expression to the enzyme protein content and enzyme activity. The detection of the TH expression in the midbrain and substantia nigra of PD model mice can be used to evaluate the neuroprotective activity of the compound.
(§2) Half of experiment mice in each group were taken to separate the midbrain after perfusion and fixation. The tissue was trimmed, and the substantia nigra-striatum area was taken to prepare paraffin sections. The TH immunofluorescence staining was performed in the brain sections of mice in each group. […] The experiment included blank control group, MPTP model group, positive control group (caffeic acid phenethyl ester, CAPE), prototype control group (styryl sulfone compounds 3B, 3C, 3D, and 3G, whose structures are shown as above), and target compound group.

substantia nigra p-α-s = assay: Substantia nigra p-α-s protein expression in MPTP Parkinson's disease model mouse (immunofluorescence); conditions: percentage of mean intensity of blank control group, gavage 21 days after MPTP modeling
Description: as §1
Alpha-synuclein is an “unfolded protein” in its natural state. It exists in a monomeric form, and participates in the physiological functions such as the release of neurotransmitters, the establishment of synaptic junctions, and the regulation of synaptic plasticity. Under pathological conditions, more than 90% of alpha-synuclein is phosphorylated at serine of position 129 and converted into phosphorylated alpha-synuclein (p-α-s), thereby forming Lewy bodies. The formation of Lewy bodies is one of the main pathological manifestations and pathological mechanisms for Parkinson's disease, and plays an important role in the formation and development of PD. The detection of the p-α-s expression in the midbrain and substantia nigra of PD model mice can evaluate the neuroprotective activity of the compound.
as §2, with “p-α-s” for “TH”

midbrain pp38 = assay: Midbrain pp38 protein expression in MPTP Parkinson's disease model mouse (western-blotting); conditions: midbrain total protein, GAPDH internal reference, gavage 21 days after MPTP modeling
Description: as §1
The p38 mitogen-activated protein kinase (p38 MAPK) is expressed in both neurons and glial cells, and is the intersection point of neuron-glial cell network information regulations. The activation of p38 signaling pathway is an important initiator of neuronal degeneration, which continuously induces the apoptosis of dopaminergic neurons in multiple ways. It has become a research hotspot for the treatment of PD. Studies have shown that the protective mechanism of CAPE against the death of primary cultured cerebellar granule neurons induced by glutamate lies in inhibiting the activation of p38 phosphorylation and in turn inhibiting the activation of the caspase 3 apoptotic pathway to prevent neuronal apoptosis. Therefore, the MPTP-induced PD mouse model can be used to investigate the inhibitory effect of the target compounds on the activation of p38 phosphorylation on the overall animal level.
Half of experiment mice in each group were taken to extract the total midbrain protein, and the change in the midbrain phosphorylated p38 protein expression was determined by western-blotting using GAPDH as the internal reference. The experiment included blank control group, MPTP model group, positive control group (caffeic acid phenethyl ester, CAPE), prototype control group (styryl sulfone compounds 3B, 3C, 3D, and 3G, whose structures are shown as above), and target compound group.

HO-1 = assay: Midbrain HO-1 expression in MPTP Parkinson's disease model mouse (western blot); conditions: for Expression (HO-1/GAPDH): midbrain, MPTP Parkinson's disease model mouse, western blot
Description: as §1
Oxidative stress is an important pathogenic mechanism of PD. Dopaminergic neurons are more sensitive to oxidative stress and are more susceptible to oxidative stress damage. Heme oxygenase (HO-1), a phase II enzyme, is also a well-known antioxidase. It plays an important protective role by catalyzing the conversion of free radicals into non-toxic products and increasing their water solubility to facilitate the elimination of free radicals, and maintain the redox balance in the body. It plays an important role in the process of protecting cells against oxidative stress damage. The activation of p38 protein phosphorylation has a negative regulatory effect on phase II enzymes. […] Using HO-1 as an indicator, the inhibitory effect of the target compounds on MPTP-induced oxidative stress damage in PD mice can be investigated.
HO-1 is expressed in astrocytes, microglial cells, and neurons. The total proteins of the midbrain tissue of mice in each experiment group were extracted, to determine the expression of phase II enzyme HO-1 in the midbrain of mice by western blot using GAPDH as the internal reference. The experiment included blank control group, MPTP model group, positive control group (caffeic acid phenethyl ester, CAPE), prototype control group (styryl sulfone compounds 3B, 3C, 3D, and 3G, whose structures are shown as above), and target compound group.

midbrain CD11b = assay: Midbrain CD11b protein expression in MPTP Parkinson's disease model mouse (western-blotting); conditions: for Expression (CD11b/GAPDH): midbrain, MPTP Parkinson's disease model mouse, western-blotting
Description: as §1
Neuron-glial cell network homeostasis disorder is an important factor for the selective and progressive death of substantia nigra dopaminergic neurons in PD. In the neurotoxic effect of MPTP, the excessive activations of microglial cells and astrocytes produce a variety of inflammatory cytokines and reactive oxygen species (ROS). These inflammatory factors and ROS amplify their respective toxicities and mediate malignant feedback loop, causing a cascade inflammation response and aggravating the pathological process of PD. CD11b and GFAP are the marker proteins for activations of microglial cells and astrocytes, respectively. Therefore, the effect of the target compounds on the activations of the microglial cells and astrocytes in the substantia nigra, hippocampus, and midbrain areas of MPTP-induced PD mice can be investigated, to explore the mechanism of the anti-PD effect of the target compounds by inhibiting the neuroinflammation.
[…] The experiment included blank control group, MPTP model group, positive control group (caffeic acid phenethyl ester, CAPE), prototype control group (styryl sulfone compounds 3B, 3C, 3D), and 3G, whose structures are shown as above), and target compound group.

SMILES | Expression (Immunofluorescence intensity %) (substantia nigra TH) [%] | Expression (Immunofluorescence intensity %) (substantia nigra p-α-s) [%] | Expression (pp38/GAPDH) (midbrain pp38) | Expression (HO-1/GAPDH) (HO-1) | Expression (CD11b/GAPDH) (midbrain CD11b) | midbrain HO-1 expression compared with the styryl sulfone prototype compounds (HO-1) | midbrain CD11b protein expression compared with the styryl sulfone prototype compounds (midbrain CD11b)
CCN(C)C(=O)Oc1ccc(/C=C/S(=O)(=O)CC(c2ccc(-c3ccc(OC)c(OC)c3)cc2)[N+](=O)[O-])cc1OC(=O)N(C)CC (stereo not shown) [Compound M1-1, (E)-4-{2-[2-(3′,4′-dimethoxy-[1,1′-biphenyl]-4-yl)-2-nitroethylsulfonyl]ethenyl}-1,2-phenylenebis(N-ethyl-N-methylcarbamate)] | 101.36 ± 5.21 | 95.64 ± 9.25 | 0.40 ± 0.05 | 1.29 ± 0.07 | 0.46 ± 0.04 | – | –
CC(C)N(c1ccc(CCS(=O)(=O)/C=C/c2ccc(OC(=O)N(C)c3ccc(I)cc3)c(OCCOCc3ccccc3)c2)cc1)C(C)C [Compound A1-3, (E)-2-(2-benzyloxyethoxy)-4-{2-[4-(N,N-diisopropylamino)phenylethylsulfonyl]ethenyl}phenyl-N-(4-iodophenyl)-N-methylcarbamate] | 89.68 ± 5.69 | 134.19 ± 11.28 | 0.27 ± 0.08 | 0.66 ± 0.05 | 1.12 ± 0.06 | – | –
COc1ccc(CC(=O)Oc2ccc(C(N)CS(=O)(=O)/C=C/c3ccc(OC(C)(C)C)c(OC(=O)N(C)c4ccccc4)c3)cc2)cc1 (stereo not shown) [Compound P1-3, (E)-4-{1-amino-2-[4-t-butoxy-3-(N-methyl-N-phenylcarbamoyloxy)styrylsulfonyl]ethyl}phenyl-2-(4-methoxyphenyl)acetate] | 79.20 ± 6.53 | 48.33 ± 5.37 | 0.33 ± 0.07 | 0.77 ± 0.10 | 1.09 ± 0.08 | – | –
O=S(=O)(/C=C/c1ccc(O)c(O)c1)Cc1ccc(Cl)cc1 [Compound 3D, (E)-4-{2-[(4-chlorophenyl)mesyl]ethenyl}benzene-1,2-diol, reference compound] | 87.38 ± 4.01 | 104.89 ± 7.56 | 1.00 ± 0.11 | 1.03 ± 0.20 | 1.30 ± 0.10 | – | –
CCOC(CS(=O)(=O)/C=C/c1ccc(OC(C)=O)c(OC(=O)Nc2ccc(NC)cc2)c1)C(OCC)c1ccc(OCc2ccccc2)c(O)c1 (stereo not shown) [Compound H2-4, (E)-4-{2-[3-(4-benzyloxy-3-hydroxyphenyl)-2,3-diethoxypropyl]sulfonylethenyl}-2-[N-(4-methylaminophenyl)carbamoyloxy]phenyl acetate] | 95.20 ± 6.06 | 136.53 ± 8.94 | 0.43 ± 0.05 | 0.95 ± 0.10 | 0.69 ± 0.04 | – | –
COCCN(C)C(=O)Oc1cc(/C=C/S(=O)(=O)CCc2cccc(-c3ccc(C)o3)c2)ccc1OC(C)=O [Compound J1-4, (E)-2-[N-(2-methoxyethyl)-N-methylcarbamoyloxy]-4-{2-[3-(5-methylfur-2-yl)phenylethylsulfonyl]ethenyl}phenyl acetate] | 88.65 ± 5.41 | 116.95 ± 8.06 | 0.41 ± 0.08 | 1.25 ± 0.06 | 0.75 ± 0.06 | – | –
CC(=O)Oc1ccc(/C=C/S(=O)(=O)Cc2c(F)c(F)c(F)c(F)c2F)cc1OC(=O)NC(=O)c1ccc([N+](=O)[O-])c(C)c1 [Compound D5-4, (E)-2-[N-(3-methyl-4-nitrobenzoyl)carbamoyloxy]-4-{2-[(perfluorophenyl)mesyl]ethenyl}phenyl acetate] | 99.86 ± 6.27 | 186.19 ± 11.02 | 0.61 ± 0.07 | 0.93 ± 0.10 | 1.11 ± 0.10 | – | –
Cc1ccc(S(=O)(=O)Oc2ccc(CS(=O)(=O)/C=C/c3ccc(OS(=O)(=O)c4ccc(C)cc4)c(OC(=O)N(C)S(=O)(=O)c4ccc(C)cc4)c3)cc2)cc1 [Compound S6-6, (E)-2-(N-methyl-N-p-tosylcarbamoyloxy)-4-{2-[(4-p-tosyloxyphenyl)mesyl]ethenyl}phenyl p-toluenesulfonate] | 96.01 ± 7.32 | 72.57 ± 6.63 | 0.27 ± 0.05 | 1.08 ± 0.11 | 0.62 ± 0.04 | – | –
CN(C)c1ccc(CC(=O)Oc2cc(/C=C/S(=O)(=O)C(Br)c3ccc(Cc4ccc(N(C)C)cc4)cc3)ccc2OC(=O)N2CCCC2C(F)(F)F)cc1 (stereo not shown) [Compound M1-5] | 87.24 ± 2.97 | 67.90 ± 3.29 | 0.29 ± 0.06 | 0.96 ± 0.08 | 0.83 ± 0.07 | – | –
CCN(CC)C(=O)Oc1ccc(/C=C/S(=O)(=O)Cc2ccc(C(C)(C)C)cc2)cc1OC(=O)N(CC)CC [Compound G1-1, (E)-4-{2-[(4-t-butylphenyl)mesyl]ethenyl}-1,2-phenylenebis(diethylcarbamate)] | 77.13 ± 7.40 | 77.36 ± 9.15 | 0.33 ± 0.07 | 1.35 ± 0.10 | 0.50 ± 0.06 | significantly higher | equivalent or lower

Source: patent US12410124B2 (priority 2019, dated 2025)
